According to patent publication US10448635B2, “Modulation of plant biology” (FBSCIENCES HOLDINGS, INC., priority 2012, dated 2019):

How the values were obtained:
Assay type in all cases: in vivo
[1] = test system: tomato plants (Lycopersicon es.); test: Experiment Fe-4: foliar CPPA, Fe (FeSO4) or CPPA and Fe on tomato plants; settings: for Leaf # / Vigor / Plt. Ht. / Plt. Wt. / Root Wt. / Shoot Wt.: tomato, foliar
Text: Experiment Fe-4: The purpose of this experiment was to determine if the addition of low levels of iron to a CPPA sample containing lower than typical amounts of iron (e.g., Fe/TOC=0.135) would increase the biological response of plants. Nominal Fe/TOC ratios for CPPA range from 0.10 to 0.28 but the optimum ratio for “as-is” samples of CPPA, as determined in the previous experiments, is between 0.2 and 0.25. Thus, for this experiment, non-agrochemically effective amounts of iron were combined with CPPA samples. Tomato plants (Lycopersicon es.) were produced from seed and transplanted into 3 inch by 3 inch pots. There were 16 treatments plus an untreated check with 20 replicates per treatment arranged in a Randomized Complete Block design. Pots were treated with water (UTC), or CPPA only (3 different rates), Fe only (3 different rates), or CPPA and Fe at each of the rates. The CPPA rates corresponded to 260, 520, and 1040 mg organic carbon (TOC) per hectare and the Fe rates corresponded to 130, 260, and 520 mg Fe per hectare. All pots were treated by foliar application immediately after transplanting. Ten days after the application, ten of the plants were harvested and assessed for vigor, leaf number, plant height, plant weight, root weight, and shoot weight. […] Additional application rates of CPPA and Fe were evaluated with similar synergistic results observed for the combination of CPPA with amounts of iron. Twenty days after transplanting, the remaining ten plants in each treatment were assessed.

plants and/or seeds = test: Summary observations: CPPA treated with cation exchange resin, Fe alone and Fe added back; settings: seed treatment
Experimental: The plant biological response was generally observed to be better when a stoichiometric amount of Fe was added back (relative to the amount of CPPA or its TOC value) rather than an excess amount. […] These observations support the premise that the combination of CPPA and Fe are synergistic in their interaction and biological effect on plants and/or seeds.

[2] = test system: tomato plants (Lycopersicon es.); test: Experiment Salt-1: CPPA/NaCl composition, foliar application; settings: NaCl 2600 mg/ha
Experimental: Experiment Salt-1: […] There were a total of 5 treatments plus an untreated check, each with 10 replicates per treatment arranged in a randomized block design. […] Each treatment comprised samples treated with CPPA alone, salt alone, or CPPA plus salt. Two rates of CPPA were used; the first was equivalent to 520 mg of TOC per hectare and a second equivalent to 1040 mg of TOC per hectare. Salt was applied at a rate equivalent to 2.6 g of salt per hectare. All treatments were diluted with water to provide a final spray volume equivalent to 208 lit per hectare, made with a spray bottle, with just enough spray solution to wet the leaf surface of each plant. Ten days after treatment the plants were assessed for vigor, leaf number, plant height, plant weight, root weight, shoot weight, and leaf conductance using a SPAD meter and are summarized in Table 8 and depicted in FIGS. 10-16.

[3] = 0 mg TOC/ha + 130 mg Fe/ha, 20 days after application
[4] = 0 mg TOC/ha + 520 mg Fe/ha, 10 days after application
[5] = 0 mg TOC/ha + 520 mg Fe/ha, 20 days after application
[6] = foliar at transplanting, 10 days after treatment

## O=S(=O)([O-])[O-].[Fe+2] [Fe, FeSO4]
[1]; Fe alone 520 mg Fe/ha, 20 days
  biological effect on plant, root and shoot weights versus UTC: apparent slightly negative biological effect
[1]; [3]
  Leaf #: 6.3 ab
  Vigor: 2.1 c
[1]; [4]
  Leaf #: 6.6 ab
  Plt. Ht.: 4.2 b
  Plt. Wt.: 4.9 b
  Root Wt.: 1.4 bc
  Shoot Wt.: 3.6 b
  Vigor: 3.8 b
[1]; [5]
  Leaf #: 5.1 b
  Plt. Ht.: 6.3 b
  Plt. Wt.: 4.5 b
  Root Wt.: 1.6 bc
  Shoot Wt.: 2.9 cd
  Vigor: 2.5 c
Plants and/or seeds
  root development: negative effect
  shoot development: negative effect

## [Cl-].[Na+] [NaCl]
[2]; [6]
  Leaf #: 5.3 e
  Plt. Ht.: 3.5 b
  Plt. Wt.: 2.7 c
  Root Wt.: 0.8 jc
  Shoot Wt.: 2.0 c
  Vigor: 2.4 b
[2]; foliar, 10 days
  phytotoxicity of salt treatment alone: significant amount of phytotoxicity
[2]; leaf conductance using a SPAD meter, foliar at transplanting, 10 days after treatment
  SPAD: 24.2 b
